Laboratory results reported in patent US20120129870A1, “PIPERAZINYL DERIVATIVES USEFUL AS MODULATORS OF THE NEUROPEPTIDE Y2 RECEPTOR” (priority 2007, published 2012).

These molecules were tested against T1, NPY Y2 receptor (Homo sapiens, UniProt P49146) (assay: Neuropeptide Y2 radioligand binding assay ([125I]PYY, KAN-Ts membranes)). Settings: KAN-Ts membranes endogenously expressing Y2, [125I]PYY (80 pM), 1 h at rt.
T1 sequence (P49146 1-381): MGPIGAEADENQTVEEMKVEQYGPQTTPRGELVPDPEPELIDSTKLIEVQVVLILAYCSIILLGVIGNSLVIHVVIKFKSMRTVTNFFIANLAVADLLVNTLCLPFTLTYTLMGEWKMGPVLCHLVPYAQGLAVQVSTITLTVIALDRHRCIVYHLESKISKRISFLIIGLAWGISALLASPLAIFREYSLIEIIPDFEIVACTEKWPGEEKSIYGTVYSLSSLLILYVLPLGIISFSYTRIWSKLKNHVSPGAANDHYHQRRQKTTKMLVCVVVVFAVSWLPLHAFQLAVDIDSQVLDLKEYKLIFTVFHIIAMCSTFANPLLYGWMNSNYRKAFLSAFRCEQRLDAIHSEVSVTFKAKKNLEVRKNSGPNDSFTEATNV
Parameters: endogenous in cells; host or cells: KAN-Ts cells (membrane preparation)
Experimental: KAN-Ts endogenously expressing Y2 receptors were used for the radioligand binding assay. Cells were grown to confluence on 150 cm^2 tissue culture plates, washed with phosphate-buffered saline (PBS), and scraped into 50 mL tubes. After centrifugation, the supernatant was aspirated, and the pellets frozen and stored at −80° C. Thawed pellets were homogenized with a polytron tissue grinder for 15 sec in 20 mM Tris-HCl, 5 mM EDTA. The homogenate was centrifuged at 800×g for 5 min and the collected supernatant was recentrifuged at 25000×g for 25 min. The resulting pellet was resuspended in binding buffer (20 mM HEPES, 120 mM NaCl, 0.22 mM KH2PO4, 1.3 mM CaCl2, 0.8 mM MgSO4). Membranes were incubated with [^125I]PYY (80 pM) in the presence or absence of test compound for 1 h at rt. The reaction was stopped by filtration through GF/C filter plates pre-soaked in 0.3% polyethylenimine and subsequently washed with Tris 50 mM, 5 mM EDTA buffer. Plates were dried for 1 h in a 55° C. oven, scintillation fluid was added and the radioactivity was counted in a Packard TopCount. Specific binding to the NPY receptor subtypes was determined by radioactivity that was bound in the presence of […]. Each binding experiment was repeated three to eight times, each in duplicate. IC50 values (i.e. concentration of unlabelled peptide or antagonist required to compete for 50% of specific binding to the radioligand) were calculated using the GraphPad Prism software (GraphPad Software Inc., San Diego Calif.) with a fit to a sigmoidal dose response curve. Apparent K, values were calculated as Ki=IC50/(1+C/KD), where C is concentration of the radioligand.

Row | Structure (SMILES) | IC50
1 | CCC(CC)C(=O)Nc1ccc(N2CCN(C(c3ccccc3)c3nccn3C)CC2)c(F)c1 (stereo not drawn) [Compound 64, 2-Ethyl-N-(3-fluoro-4-{4-[(1-methyl-1H-imidazol-2-yl)-phenyl-methyl]-piperazin-1-yl}-phenyl)-butyramide] | 0.17 µM
2 | CCC(CC)C(=O)Nc1ccc(N2CCN(C(c3ccccc3)c3ccc(Cl)cc3)CC2)c(F)c1 (stereo not drawn) [Compound 13, N-(4-{4-[(4-Chloro-phenyl)-phenyl-methyl]-piperazin-1-yl}-3-fluoro-phenyl)-2-ethyl-butyramide] | 0.45 µM
3 | O=C(Nc1ccc(N2CCN(C(c3ccc(F)cc3)c3ncco3)CC2)c(F)c1)[C@@H]1CCOC1 (stereo in doubt) [Compound 127, Tetrahydro-furan-3-carboxylic acid (3-fluoro-4-{4-[(4-fluoro-phenyl)-oxazol-2-yl-methyl]-piperazin-1-yl}-phenyl)-amide] | > 5 µM
4 | CCC(CC)C(=O)Nc1ccc(N2CCN(C(C(C)=O)c3ccccc3)CC2)c(F)c1 (stereo not drawn) [Compound 232, 2-Ethyl-N-{3-fluoro-4-[4-(2-oxo-1-phenyl-propyl)-piperazin-1-yl]-phenyl}-butyramide] | 0.38 µM
5 | CCC(CC)C(=O)Nc1ccc(N2CCN(C(c3ncco3)C3CC3)CC2)c(F)c1 (stereo not drawn) [Compound 66, N-{4-[4-(Cyclopropyl-oxazol-2-yl-methyl)-piperazin-1-yl]-3-fluoro-phenyl}-2-ethyl-butyramide] | 1.5 µM
6 | Cc1ccnc(Nc2ccc(N3CCN(C(c4ccccc4)c4ncco4)CC3)c(F)c2)n1 (stereo not drawn) [Compound 61, {3-Fluoro-4-[4-(oxazol-2-yl-phenyl-methyl)-piperazin-1-yl]-phenyl}-(4-methyl-pyrimidin-2-yl)-amine] | > 10 µM
7 | O=C(Nc1ccc(N2CCN(C(c3ccccc3)c3ccccc3)CC2)c(F)c1)[C@H]1CCOC1 (stereo in doubt) [Compound 14, Tetrahydro-furan-3-carboxylic acid [4-(4-benzhydryl-piperazin-1-yl)-3-fluoro-phenyl]-amide] | 0.08 µM
8 | CCC(CC)C(=O)Nc1ccc(N2CCN(C(c3ccc(F)cc3)c3ncco3)CC2)c(F)c1 (stereo not drawn) [Compound 120, 2-Ethyl-N-(3-fluoro-4-{4-[(4-fluoro-phenyl)-oxazol-2-yl-methyl]-piperazin-1-yl}-phenyl)-butyramide] | 0.77 µM
9 | CCC(CC)C(=O)Nc1ccc(N2CCN(C(c3ccccn3)c3ccccn3)CC2)c(F)c1 [Compound 55, N-{4-[4-(Di-pyridin-2-yl-methyl)-piperazin-1-yl]-3-fluoro-phenyl}-2-ethyl-butyramide] | 0.054 µM
10 | CCC(CC)C(=O)Nc1ccc(N2CCN(C(c3ccccc3)C3CCC3)CC2)c(F)c1 (stereo not drawn) [Compound 78, N-{4-[4-(Cyclobutyl-phenyl-methyl)-piperazin-1-yl]-3-fluoro-phenyl}-2-ethyl-butyramide] | 0.053 µM
11 | CCC(CC)C(=O)Nc1ccc(N2CCN(C(c3ccccc3)c3ncco3)CC2)c(C#N)c1 (stereo not drawn) [Compound 86, N-{3-Cyano-4-[4-(oxazol-2-yl-phenyl-methyl)-piperazin-1-yl]-phenyl}-2-ethyl-butyramide] | 0.005 µM
12 | Cc1cc(NC(=O)C2CC2)ccc1N1CCN(C(c2ccccc2)c2ncco2)CC1 (stereo not drawn) [Compound 81, Cyclopropanecarboxylic acid {3-methyl-4-[4-(oxazol-2-yl-phenyl-methyl)-piperazin-1-yl]-phenyl}amide] | 1.7 µM
13 | N#Cc1cc(NC(=O)C2CCCCC2)ccc1N1CCN(C(c2ccccc2)c2ncco2)CC1 (stereo not drawn) [Compound 112, Cyclohexanecarboxylic acid {3-cyano-4-[4-(oxazol-2-yl-phenyl-methyl)-piperazin-1-yl]-phenyl}-amide] | 0.43 µM
14 | CCC(CC)C(=O)Nc1ccc(N2CCN(C(C#N)c3ccccc3C#N)CC2)c(F)c1 (stereo not drawn) [Compound 136, N-(4-{4-[Cyano-(2-cyano-phenyl)-methyl]-piperazin-1-yl}-3-fluoro-phenyl)-2-ethyl-butyramide] | 9.8 µM
15 | N#Cc1cc(NC(=O)C2CC2)ccc1N1CCN(C(c2ccccc2)c2ncco2)CC1 (stereo not drawn) [Compound 101, Cyclopropanecarboxylic acid {3-cyano-4-[4-(oxazol-2-yl-phenyl-methyl)-piperazin-1-yl]-phenyl}-amide] | 0.17 µM
16 | CCC(CC)C(=O)Nc1ccc(N2CCN(C(c3ccc(OC)cc3)C3CC3)CC2)c(F)c1 (stereo not drawn) [Compound 84, N-(4-{4-[Cyclopropyl-(4-methoxy-phenyl)-methyl]-piperazin-1-yl}-3-fluoro-phenyl)-2-ethyl-butyramide] | 0.29 µM
17 | CCC(CC)C(=O)Nc1ccc(N2CCN(C(c3ncco3)C3CCCC3)CC2)c(F)c1 (stereo not drawn) [Compound 117, N-{4-[4-(Cyclopentyl-oxazol-2-yl-methyl)-piperazin-1-yl]-3-fluoro-phenyl}-2-ethyl-butyramide] | 0.31 µM
18 | O=C(Nc1ccc(N2CCN(C(c3ccccc3)c3ncco3)CC2)c(F)c1)C1CCC(F)(F)CC1 (stereo not drawn) [Compound 108, 4,4-Difluoro-cyclohexanecarboxylic acid {3-fluoro-4-[4-(oxazol-2-yl-phenyl-methyl)-piperazin-1-yl]-phenyl}-amide] | > 10 µM
19 | O=C(Nc1ccc(N2CCN(C(c3ccccc3)c3ncco3)CC2)c(F)c1)C1CCCC1 (single isomer, unassigned) [Compound 126, Cyclopentanecarboxylic acid {3-fluoro-4-[4-(oxazol-2-yl-phenyl-methyl)-piperazin-1-yl]-phenyl}-amide] | 0.34 µM
20 | CCC(CC)C(=O)Nc1ccc(N2CCN(C(c3ccccn3)c3ncco3)CC2)c(C#N)c1 (stereo not drawn) [Compound 155, N-{3-Cyano-4-[4-(oxazol-2-yl-pyridin-2-yl-methyl)-piperazin-1-yl]-phenyl}-2-ethyl-butyramide] | 0.15 µM
21 | CCC(CC)C(=O)Nc1ccc(N2CCN(C(c3ncco3)C3CCCCC3)CC2)c(F)c1 (stereo not drawn) [Compound 122, N-{4-[4-(Cyclohexyl-oxazol-2-yl-methyl)-piperazin-1-yl]-3-fluoro-phenyl}-2-ethyl-butyramide] | 0.43 µM
22 | CC(=O)Nc1ccc(N2CCN(C(c3ccccc3)c3ncco3)CC2)c(F)c1 (stereo not drawn) [Compound 104, N-{3-Fluoro-4-[4-(oxazol-2-yl-phenyl-methyl)-piperazin-1-yl]-phenyl}-acetamide] | > 10 µM
23 | CC[C@@H](C)C(=O)Nc1ccc(N2CCN(C(c3ccccc3)c3ncco3)CC2)c(C#N)c1 (stereo in doubt) [Compound 93, N-{3-Cyano-4-[4-(oxazol-2-yl-phenyl-methyl)-piperazin-1-yl]-phenyl}-2-methyl-butyramide] | 0.032 µM
24 | CCCC(=O)Nc1ccc(N2CCN(C(c3ccccc3)c3ncco3)CC2)c(C#N)c1 (stereo not drawn) [Compound 98, N-{3-Cyano-4-[4-(oxazol-2-yl-phenyl-methyl)-piperazin-1-yl]-phenyl}-butyramide] | 0.18 µM
25 | CCC(CC)C(=O)Nc1ccc(N2CCN(C(c3ccc(C#N)cc3)c3ncco3)CC2)c(F)c1 (stereo not drawn) [Compound 146, N-(4-{4-[(4-Cyano-phenyl)-oxazol-2-yl-methyl]-piperazin-1-yl}-3-fluoro-phenyl)-2-ethyl-butyramide] | 0.26 µM
26 | CC(C)C(=O)Nc1ccc(N2CCN(C(c3ccccc3)c3ncco3)CC2)c(C#N)c1 (stereo not drawn) [Compound 87, N-{3-Cyano-4-[4-(oxazol-2-yl-phenyl-methyl)-piperazin-1-yl]-phenyl}-isobutyramide] | 0.054 µM
27 | Cc1nc(C(c2ccc(OC(F)(F)F)cc2)N2CCN(c3ccc(NC(=O)C4CCOC4)cc3F)CC2)no1 (stereo not drawn) [Compound 280] | 0.43 µM
28 | CCC(CC)C(=O)Nc1ccc(N2CCN(C(c3ccccc3)C3CCCC3)CC2)c(F)c1 (stereo not drawn) [Compound 83, N-{4-[4-(Cyclopentyl-phenyl-methyl)-piperazin-1-yl]-3-fluoro-phenyl}-2-ethyl-butyramide] | 0.2 µM

Same assay, conditions: apparent Ki=IC50/(1+C/KD)

Row | Structure (SMILES) | Ki
29 | CCC(CC)C(=O)Nc1ccc(N2CCN(C(c3ccccc3)c3ccc(Cl)cc3)CC2)c(C#N)c1 (stereo not drawn) [Compound 311, N-(4-{4-[(4-Chloro-phenyl)-phenyl-methyl]-piperazin-1-yl}-3-cyano-phenyl)-2-ethyl-butyramide] | 0.063 µM
30 | Cc1noc(C)c1C(=O)Nc1ccc(N2CCN(C(c3ccccc3)c3ccc(Cl)cc3)CC2)c(C#N)c1 (stereo not drawn) [Compound 312, 3,5-Dimethyl-isoxazole-4-carboxylic acid (4-{4-[(4-chloro-phenyl)-phenyl-methyl]-piperazin-1-yl}-3-cyano-phenyl)-amide] | 0.084 µM
